Reference: patent US20180078498A1, “Microneedle Patch for Delivering an Active Ingredient to Skin” (LEO Pharma A/S, priority 2015, published 2018)

Assay: Testing of biodegradable polymers as microneedle matrix (physical stability, release, chemical stability of active ingredient)
Type: physicochemical
Experimental: In the course of research leading to the present invention, a large number of different biodegradable polymers were tested for their suitability to form a matrix from which the microneedles could be made.

C=C1/C(=C\C=C2/CCC[C@]3(C)[C@@H]([C@H](C)/C=C/[C@@H](O)C4CC4)CC[C@@H]23)C[C@@H](O)C[C@@H]1O [calcipotriol]
chemical stability of calcipotriol (ester-terminated polylactide, polyglycolide or polylactide co-glycolide as the biodegradable polymer): chemically stable
chemical stability of calcipotriol (in a matrix of polylactic acid, polyglycolic acid or polylactic co-glycolic acid): not chemically stable
